Laboratory results taken from PubChem BioAssay AID743390 (Vanderbilt Specialized Chemistry Center, 2014).

Molecular target: Phospholipase D1 (Homo sapiens) (UniProt Q13393)
Experiment: phospholipase D1 enzyme inhibition confirmation – biochemical, concentration response (AID 743390)
Settings: purified human PLD1 enzyme activity assay

Chain of Phospholipase D1 (Homo sapiens) (Q13393 whole entry, looked up): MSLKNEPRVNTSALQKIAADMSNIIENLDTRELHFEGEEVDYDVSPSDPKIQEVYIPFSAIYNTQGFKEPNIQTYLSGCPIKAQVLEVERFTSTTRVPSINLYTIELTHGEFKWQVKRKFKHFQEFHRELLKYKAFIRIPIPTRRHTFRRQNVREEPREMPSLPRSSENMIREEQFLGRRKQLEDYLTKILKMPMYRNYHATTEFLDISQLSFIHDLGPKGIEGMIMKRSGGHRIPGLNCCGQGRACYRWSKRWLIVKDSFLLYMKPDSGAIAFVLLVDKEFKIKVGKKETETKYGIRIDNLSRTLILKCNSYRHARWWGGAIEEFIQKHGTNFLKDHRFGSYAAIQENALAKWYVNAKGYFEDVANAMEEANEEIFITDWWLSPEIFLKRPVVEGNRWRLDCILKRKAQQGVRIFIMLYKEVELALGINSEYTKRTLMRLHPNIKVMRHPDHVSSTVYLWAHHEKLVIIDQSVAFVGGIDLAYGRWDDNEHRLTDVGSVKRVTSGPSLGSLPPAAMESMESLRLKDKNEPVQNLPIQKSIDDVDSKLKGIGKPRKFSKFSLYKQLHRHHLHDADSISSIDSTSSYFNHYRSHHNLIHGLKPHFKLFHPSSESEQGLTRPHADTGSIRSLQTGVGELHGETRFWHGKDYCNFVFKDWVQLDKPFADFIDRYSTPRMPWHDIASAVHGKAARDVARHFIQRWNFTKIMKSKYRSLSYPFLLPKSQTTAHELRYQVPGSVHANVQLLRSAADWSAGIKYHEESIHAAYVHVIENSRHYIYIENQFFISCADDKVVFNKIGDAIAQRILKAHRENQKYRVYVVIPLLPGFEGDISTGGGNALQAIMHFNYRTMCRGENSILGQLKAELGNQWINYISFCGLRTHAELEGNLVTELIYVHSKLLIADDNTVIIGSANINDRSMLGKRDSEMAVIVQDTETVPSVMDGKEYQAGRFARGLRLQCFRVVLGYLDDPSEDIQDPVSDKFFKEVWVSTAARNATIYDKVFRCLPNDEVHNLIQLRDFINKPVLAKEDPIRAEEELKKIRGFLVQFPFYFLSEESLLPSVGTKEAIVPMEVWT

SMILES	IC50
O=C(NCCN1CCC2(CC1)C(=O)NCN2Cc1cccnc1)c1cc2ccccc2o1	20 µM
O=C(NCCN1CCC2(CC1)C(=O)NCN2Cc1cccnc1)c1ccc2ccccc2c1	20 µM
